# From PubChem BioAssay (NCI)
#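 Values below derive from 48-hour exposures of cells grown in 96-well plates, with endpoints linearly interpolated between the two concentrations bracketing the appropriate inhibition level. Here, GI50 denotes the concentration required for 50% inhibition of growth. TGI: total growth inhibition.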
# Legend:
# Test in all cases: DTP human tumour cell line panel, 48 h
# SN12C renal = test system: SN12C renal
# MDA-MB-435 = test system: MDA-MB-435
# HOP-92 NSCLC = test system: HOP-92 NSCLC
# HL-60(TB) leukemia = test system: HL-60(TB) leukemia
# NCI-H522 lung = test system: NCI-H522 lung
# BT-549 breast = test system: BT-549 breast
# OVCAR-3 ovarian = test system: OVCAR-3 ovarian
# SK-MEL-5 melanoma = test system: SK-MEL-5 melanoma
# EKVX NSCLC = test system: EKVX NSCLC
# A549 NSCLC = test system: A549 NSCLC
# COLO 205 colon = test system: COLO 205 colon
# SK-MEL-28 melanoma = test system: SK-MEL-28 melanoma
# HS 578T breast = test system: HS 578T breast
# NCI/ADR-RES ovarian = test system: NCI/ADR-RES ovarian
# SK-OV-3 ovarian = test system: SK-OV-3 ovarian
# LOX IMVI melanoma = test system: LOX IMVI melanoma
# SNB-19 CNS = test system: SNB-19 CNS
# SK-MEL-2 melanoma = test system: SK-MEL-2 melanoma
# OVCAR-8 ovarian = test system: OVCAR-8 ovarian
# HOP-62 NSCLC = test system: HOP-62 NSCLC
# NCI-H226 lung = test system: NCI-H226 lung
# 786-0 renal = test system: 786-0 renal
# DU-145 prostate = test system: DU-145 prostate
# T-47D breast = test system: T-47D breast
# PC-3 prostate = test system: PC-3 prostate
# CCRF-CEM leukemia = test system: CCRF-CEM leukemia
# SF-268 CNS = test system: SF-268 CNS
# MDA-MB-468 breast = test system: MDA-MB-468 breast
# HCT-15 colon = test system: HCT-15 colon
# RPMI-8226 leukemia = test system: RPMI-8226 leukemia
# K-562 leukemia = test system: K-562 leukemia
# NCI-H23 lung = test system: NCI-H23 lung
# OVCAR-5 ovarian = test system: OVCAR-5 ovarian
# CAKI-1 renal = test system: CAKI-1 renal
# OVCAR-4 ovarian = test system: OVCAR-4 ovarian
# U251 CNS = test system: U251 CNS
# NCI-H460 lung = test system: NCI-H460 lung
# HCT-116 colon = test system: HCT-116 colon
# UACC-62 melanoma = test system: UACC-62 melanoma
# HCC-2998 colon = test system: HCC-2998 colon
# UO-31 renal = test system: UO-31 renal
# MOLT-4 leukemia = test system: MOLT-4 leukemia
# MDA-MB-231 breast = test system: MDA-MB-231 breast
# SR leukemia = test system: SR leukemia
# A498 renal = test system: A498 renal
# SF-539 CNS = test system: SF-539 CNS
# HT29 colon = test system: HT29 colon
# M14 melanoma = test system: M14 melanoma
# SNB-75 CNS = test system: SNB-75 CNS
# RXF 393 renal = test system: RXF 393 renal
# MCF7 breast = test system: MCF7 breast
# IGROV1 ovarian = test system: IGROV1 ovarian
# SW-620 colon = test system: SW-620 colon
# SF-295 CNS = test system: SF-295 CNS
# UACC-257 melanoma = test system: UACC-257 melanoma
# TK-10 renal = test system: TK-10 renal
# ACHN renal = test system: ACHN renal
# KM12 colon = test system: KM12 colon
compound,measurement,setting,value
O=C(N/N=C/c1occc1Br)c1[nH]c2ccc(Br)cc2c1-c1ccccc1,GI50,SN12C renal,1.51 µM
same,TGI,SN12C renal,12.5 µM
same,GI50,MDA-MB-435,0.249 µM
same,TGI,MDA-MB-435,0.875 µM
same,GI50,HOP-92 NSCLC,11.2 µM
same,TGI,HOP-92 NSCLC,24.7 µM
same,GI50,HL-60(TB) leukemia,0.344 µM
same,TGI,HL-60(TB) leukemia,2.02 µM
same,GI50,NCI-H522 lung,0.183 µM
same,TGI,NCI-H522 lung,0.5 µM
same,GI50,BT-549 breast,0.743 µM
same,TGI,BT-549 breast,12.9 µM
same,GI50,OVCAR-3 ovarian,0.351 µM
same,TGI,OVCAR-3 ovarian,11.8 µM
same,GI50,SK-MEL-5 melanoma,0.677 µM
same,TGI,SK-MEL-5 melanoma,6.21 µM
same,GI50,EKVX NSCLC,1.93 µM
same,TGI,EKVX NSCLC,17.3 µM
same,GI50,A549 NSCLC,1.95 µM
same,TGI,A549 NSCLC,21.9 µM
same,GI50,COLO 205 colon,0.561 µM
same,TGI,COLO 205 colon,3.97 µM
same,GI50,SK-MEL-28 melanoma,5.05 µM
same,TGI,SK-MEL-28 melanoma,20.9 µM
same,GI50,HS 578T breast,0.759 µM
same,TGI,HS 578T breast,18.4 µM
same,GI50,NCI/ADR-RES ovarian,0.348 µM
same,TGI,NCI/ADR-RES ovarian,3.24 µM
same,GI50,SK-OV-3 ovarian,1.5 µM
same,TGI,SK-OV-3 ovarian,18.1 µM
same,GI50,LOX IMVI melanoma,0.663 µM
same,TGI,LOX IMVI melanoma,12.7 µM
same,GI50,SNB-19 CNS,2.85 µM
same,TGI,SNB-19 CNS,19.3 µM
same,GI50,SK-MEL-2 melanoma,0.675 µM
same,TGI,SK-MEL-2 melanoma,16.9 µM
same,GI50,OVCAR-8 ovarian,2.3 µM
same,TGI,OVCAR-8 ovarian,11.3 µM
same,GI50,HOP-62 NSCLC,0.668 µM
same,TGI,HOP-62 NSCLC,18.1 µM
same,GI50,NCI-H226 lung,2.51 µM
same,TGI,NCI-H226 lung,16.6 µM
same,GI50,786-0 renal,0.677 µM
same,TGI,786-0 renal,16.7 µM
same,GI50,DU-145 prostate,2.71 µM
same,TGI,DU-145 prostate,13.1 µM
same,GI50,T-47D breast,0.484 µM
same,TGI,T-47D breast,19.7 µM
same,GI50,PC-3 prostate,0.941 µM
same,TGI,PC-3 prostate,14.9 µM
same,GI50,CCRF-CEM leukemia,0.512 µM
same,TGI,CCRF-CEM leukemia,11 µM
same,GI50,SF-268 CNS,1.74 µM
same,TGI,SF-268 CNS,16.2 µM
same,GI50,MDA-MB-468 breast,0.383 µM
same,TGI,MDA-MB-468 breast,16.9 µM
same,GI50,HCT-15 colon,0.516 µM
same,TGI,HCT-15 colon,11.7 µM
same,GI50,RPMI-8226 leukemia,2.44 µM
same,TGI,RPMI-8226 leukemia,20.5 µM
same,GI50,K-562 leukemia,0.384 µM
same,TGI,K-562 leukemia,> 100 µM
same,GI50,NCI-H23 lung,2.05 µM
same,TGI,NCI-H23 lung,13.2 µM
same,GI50,OVCAR-5 ovarian,2.79 µM
same,TGI,OVCAR-5 ovarian,13.6 µM
same,GI50,CAKI-1 renal,0.698 µM
same,TGI,CAKI-1 renal,17.1 µM
same,GI50,OVCAR-4 ovarian,7.1 µM
same,TGI,OVCAR-4 ovarian,22 µM
same,GI50,U251 CNS,3.22 µM
same,TGI,U251 CNS,16.8 µM
same,GI50,NCI-H460 lung,0.756 µM
same,TGI,NCI-H460 lung,10.9 µM
same,GI50,HCT-116 colon,0.557 µM
same,TGI,HCT-116 colon,12.6 µM
same,GI50,UACC-62 melanoma,0.384 µM
same,TGI,UACC-62 melanoma,16.7 µM
same,GI50,HCC-2998 colon,1.79 µM
same,TGI,HCC-2998 colon,13.7 µM
same,GI50,UO-31 renal,0.746 µM
same,TGI,UO-31 renal,21.1 µM
same,GI50,MOLT-4 leukemia,1.45 µM
same,TGI,MOLT-4 leukemia,12.8 µM
same,GI50,MDA-MB-231 breast,1.1 µM
same,TGI,MDA-MB-231 breast,14.6 µM
same,GI50,SR leukemia,0.459 µM
same,TGI,SR leukemia,30 µM
same,GI50,A498 renal,14.8 µM
same,TGI,A498 renal,28.8 µM
same,GI50,SF-539 CNS,1.16 µM
same,TGI,SF-539 CNS,4.36 µM
same,GI50,HT29 colon,0.456 µM
same,TGI,HT29 colon,2.68 µM
same,GI50,M14 melanoma,0.669 µM
same,TGI,M14 melanoma,15.8 µM
same,GI50,SNB-75 CNS,0.832 µM
same,TGI,SNB-75 CNS,14.2 µM
same,GI50,RXF 393 renal,2.68 µM
same,TGI,RXF 393 renal,22.2 µM
same,GI50,MCF7 breast,0.323 µM
same,TGI,MCF7 breast,11.9 µM
same,GI50,IGROV1 ovarian,1.23 µM
same,TGI,IGROV1 ovarian,13.7 µM
same,GI50,SW-620 colon,0.443 µM
same,TGI,SW-620 colon,14.3 µM
same,GI50,SF-295 CNS,0.359 µM
same,TGI,SF-295 CNS,13.5 µM
same,GI50,UACC-257 melanoma,12.5 µM
same,TGI,UACC-257 melanoma,28.8 µM
same,GI50,TK-10 renal,7.68 µM
same,TGI,TK-10 renal,26.5 µM
same,GI50,ACHN renal,0.952 µM
same,TGI,ACHN renal,16.2 µM
same,GI50,KM12 colon,1.26 µM
same,TGI,KM12 colon,14.1 µM
